# Reference: patent US20130267532A1, “CYCLIC AMIDE COMPOUNDS AND THEIR USE IN THE TREATMENT OF DISEASE” (priority 2010, published 2013)
# Target: T1, hERG current (Homo sapiens, UniProt Q12809)
# T1 construct: expressed in transfected cells; host or cells: CHO-K1 cells expressing hERG (Persson et al., J. Cardiovasc. Electrophysiol. 16, 329-341, 2005)
# Assay: hERG analysis Method 2 (IonWorks HT, CHO cells)
# Format: cell-based
# Details: hERG-expressing CHO cells, ~21° C., 8-point non-cumulative curves
# Description: The hERG-expressing Chinese hamster ovary K1 (CHO) cells described by (Persson, Carlsson, Duker, & Jacobson, 2005) are grown to semi-confluence at 37° C. in a humidified environment (5% CO2) in F-12 Ham medium containing L-glutamine, 10% foetal calf serum (FCS) and 0.6 mg/mL hygromycin (all available from Sigma-Aldrich). Prior to use, the monolayer is washed using a pre-warmed (37° C.) 3 mL aliquot of Versene 1:5,000 (Invitrogen). After aspiration of this solution the flask is incubated at 37° C. in an incubator with a further 2 mL of Versene 1:5,000 for a period of 6 minutes. Cells are then detached from the bottom of the flask by gentle tapping and 10 mL of Dulbecco's Phosphate-Buffered Saline containing calcium (0.9 mM) and magnesium (0.5 mM) (PBS; Invitrogen) is then added to the flask and aspirated into a 15 mL centrifuge tube prior to centrifugation (50 g, for 4 mins). The resulting supernatant is discarded and the pellet gently re-suspended in 3 mL of PBS. A 0.5 mL aliquot of cell suspension is removed and the number of viable cells (based on trypan blue exclusion) is determined in an automated reader (Cedex; Innovatis) so that the cell re-suspension volume can be adjusted with PBS to give the desired final cell concentration. It is the cell concentration at this point in the assay that is quoted when referring to this parameter. […]
# T1 sequence (Q12809 whole entry): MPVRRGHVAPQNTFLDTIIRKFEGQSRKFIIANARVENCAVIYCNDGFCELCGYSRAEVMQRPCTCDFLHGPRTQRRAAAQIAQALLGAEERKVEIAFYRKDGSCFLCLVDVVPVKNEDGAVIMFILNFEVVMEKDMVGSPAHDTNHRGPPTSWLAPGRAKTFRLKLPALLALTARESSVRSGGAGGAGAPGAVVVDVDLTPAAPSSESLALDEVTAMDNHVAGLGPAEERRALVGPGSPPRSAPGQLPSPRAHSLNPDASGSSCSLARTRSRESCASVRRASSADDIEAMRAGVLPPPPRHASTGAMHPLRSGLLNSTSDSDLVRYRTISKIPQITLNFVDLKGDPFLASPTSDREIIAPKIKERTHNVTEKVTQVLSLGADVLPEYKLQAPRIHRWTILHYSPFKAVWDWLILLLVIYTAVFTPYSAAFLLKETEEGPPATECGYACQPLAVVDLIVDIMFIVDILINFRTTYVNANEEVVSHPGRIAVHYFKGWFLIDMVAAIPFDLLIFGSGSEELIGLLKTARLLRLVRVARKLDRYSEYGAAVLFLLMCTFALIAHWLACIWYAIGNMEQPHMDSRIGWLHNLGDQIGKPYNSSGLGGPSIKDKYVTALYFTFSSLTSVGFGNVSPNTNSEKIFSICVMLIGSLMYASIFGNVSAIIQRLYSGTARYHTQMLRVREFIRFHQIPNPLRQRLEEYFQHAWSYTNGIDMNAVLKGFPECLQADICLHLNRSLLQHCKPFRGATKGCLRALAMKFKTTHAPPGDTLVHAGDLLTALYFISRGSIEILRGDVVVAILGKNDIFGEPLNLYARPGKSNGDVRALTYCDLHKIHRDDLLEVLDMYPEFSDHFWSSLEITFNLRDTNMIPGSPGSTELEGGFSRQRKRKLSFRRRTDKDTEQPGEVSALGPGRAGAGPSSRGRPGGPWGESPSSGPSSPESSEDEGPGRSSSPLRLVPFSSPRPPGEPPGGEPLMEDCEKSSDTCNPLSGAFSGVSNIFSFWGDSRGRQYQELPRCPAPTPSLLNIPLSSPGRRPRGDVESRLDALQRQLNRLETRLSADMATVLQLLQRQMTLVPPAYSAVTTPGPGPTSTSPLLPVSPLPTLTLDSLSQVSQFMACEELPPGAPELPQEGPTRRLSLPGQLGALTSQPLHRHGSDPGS
row,SMILES,IC50 [µM]
1,"CCC[C@@H](CCO)Nc1nc(N)nc(C)c1Cc1ccc(N2CCN(C)CC2=O)cc1OC [Example 3, (S)-1-(4-{[2-Amino-4-(1-hydroxyhexan-3-ylamino)-6-methylpyrimidin-5-yl]methyl}-3-methoxyphenyl)-4-methylpiperazin-2-one]",> 33
2,"CCCCCNc1nc(N)nc(C)c1Cc1ccc(N2CCN(C)CC2=O)cc1OC [Example 2, 1-(4-{[2-Amino-4-methyl-6-(pentylamino)pyrimidin-5-yl]methyl}-3-methoxyphenyl)-4-methylpiperazin-2-one]",5.41
